We go through 15 molecules from US20050143427A1, “[B]-fused bicyclic proline derivatives and their use for treating arthritic conditions” (priority 2003, published 2005).

Series [1] is described as follows: Drug plasma half-life assay (DPH-LA) and bioavailability in rat. To be noted: male. In kind it is in vivo. As for the experimental part: Three fasted male Sprague-Dawley rats are dosed by intravenous infusion via cannula over 5 minutes of 3 mg/kg of invention compound in 1.0 mL saline solution, and the cannulas were each rinsed with 1.0 mL saline solution immediately following infusion. Animals are fed at 4 hours post dose. Blood samples are collected by conventional means in tubes containing ethylenediaminetetraacetic acid (“EDTA”) at Times 0 (predose), 0.083 (end of infusion), 0.25, 0.5, 1, 2, 4, 6, 8, 12, and 24 hours post dose. Plasma is separated from the blood and stored frozen until analyzed by conventional high performance liquid chromatography, whereby 5.0 ng/mL was the lower limit of quantitation.
Three fasted male Wistar rats are dosed by oral gavage with optionally 5 mg/kg, 30 mg/kg, or 300 mg/kg of invention compound. Animals are fed at 4 hours post dose. Blood samples are collected by conventional means in tubes containing EDTA at Times 0 (predose), 0.5, 1, 2, 4, 6, 8, 12, and 24 hours post dose. Plasma is separated from the blood and stored frozen until analyzed.
Mean plasma half-life was determined by thawing and assaying the plasma samples using high performance liquid chromatography by conventional means. A concentration of test compound of 5.0 ng/mL was the lower limit of quantitation.
Plasma half-life was calculated as the time in hours by conventional means. Drug quantitation is done by comparison to standard samples containing known amounts of test compound.
Mean bioavailability for test compound was determined by calculating area under the concentration-time curve (“AUC”) Extrap using conventional methods.

Series [2] deals with pig alpha-2-delta receptor 2 (A2DR2) (UniProt A0A8W4FF87). Nature of the series: [3H]Gabapentin scintillant proximity A2DR2 binding assay (A2DR2 SPA, Biological Method 5). Conditions: displacement of [3H]-gabapentin. As to the method:
(§1) Recombinant HEK 293 cells expressing pig A2DR1 and A2DR2 subunits were grown under normal cell culture conditions (RPMI-1640 media with 10% FBS, 200 μg G418, and 1% penicillin/streptomycin 1t 37° C. with 5% CO2) until reaching confluency in T-75 flasks, at which time they were harvested. The harvested cells were suspended in ice-cold 5 mM Tris/5 mM ethylenediaminetetraacetic acid (“EDTA”) buffer, pH 7.4 (“TE buffer”) containing phenylmethylsulfonyl fluoride (“PMSF”) (0.1 mM) and Roche Complete Protease Inhibitor Cocktail, and allowed to sit on ice for 30 minutes. The cells were broken by sonication using 20 bursts, 40-50 cycles, and then centrifuged at 3000×g for 10 minutes. The resulting supernatant was transferred to a new tube and centrifuged at 50,000×g for 30 minutes. The resulting pellet was resuspended in 10 mM HEPES buffer, pH 7.4, homogenized, and stored at—80° C. The A2DR1 or A2DR2 membrane protein concentration was determined by the Pierce BCA method using bovine serum albumin (“BSA”) as the standard.
(§2) The [^3H]gabapentin SPA binding assay was performed in Costar 3632 96-well, clear bottom assay plates using Wheatgerm agglutinin beads (Amersham Pharmacia Biotech). Pig A2DR1 or A2DR2 membranes (10-20 μg protein per well) prepared above in Step (1) and SPA beads (0.5 mg per well) were mixed with 30 nM [^3H]gabapentin (52 Ci/mmol; Amersham Pharmacia Biotech) in 10 mM HEPES/10 mM MgSO4 assay buffer, pH 7.4 using KOH. The final well volume was 200 μL and non-specific binding was determined in the presence of 10 μM unlabeled pregabalin. The final mixture containing A2DR1 or A2DR2 membrane protein incubated with SPA beads, test compounds, and [^3H]gabapentin was incubated at room temperature for 15-24 hours, and the plates were then counted on a Wallace Trilux 1450 Microbeta scintillation counter. Step (3): Determination of IC50 values
(§3) Curve fitting and IC50 values were calculated using a four-parameter, non-linear regression equation from GraphPad Prism 3.0 software, while Ki values were determined using the equation of Chang and Prussoff.
A general note: Displacement assays read how much labelled ligand stays bound in the presence of the test substance.

Series [3] concerns MIA Rat (monosodium iodoacetate-induced osteoarthritis, right knee joint). Nature of the series: Monosodium iodoacetate-induced osteoarthritis in rat model of joint cartilage damage (MIA Rat). The format is in vivo. An excerpt:
One end result of the induction of osteoarthritis in this model, as determined by histologic analysis, is the development of an osteoarthritic condition within the affected joint, as characterized by the loss of Toluidine blue staining and formation of osteophytes. Associated with the histologic changes is a concentration-dependent degradation of joint cartilage, as evidenced by affects on hind-paw weight distribution of the limb containing the affected joint, the presence of increased amounts of proteoglycan or hydroxyproline in the joint upon biochemical analysis, or histopathological analysis of the osteoarthritic lesions.
The invention compounds typically are not effective for relieving joint pain when administered in an acute model, such as the instant MIA Rat model, which has a duration of just 14 or 28 days.
Generally, In the MIA Rat model on Day 0, the hind-paw weight differential between the right arthritic joint and the left healthy joint of male Wistar rats (150 g) are determined with an incapacitance tester, model 2KG (Linton Instrumentation, Norfolk, United Kingdom). The incapacitance tester has a chamber on top with an outwardly sloping front wall that supports a rat's front limbs, and two weight sensing pads, one for each hind paw, that facilitates this determination. Then the rats are anesthetized with isofluorine, and the right, hind leg knee joint is injected with 1.0 mg of mono-iodoacetate (“MIA”) through the infrapatellar ligament. Injection of MIA into the joint results in the inhibition of glycolysis and eventual death of surrounding chondrocytes. The rats are further administered either an invention compound or vehicle (in the instant case, water) daily for 14 days or 28 days.
The invention compound is typically administered at a dose of 30 mg of per kilogram of rat per day (30 mg/kg/day), but may be administered at other doses such as, for example, 10 mg/kg/day, 60 mg/kg/day, 90-mg/kg/day, or 100 mg/kg/day according to the requirements of the invention compound being studied. It is well within the level of ordinary skill in the pharmaceutical arts to determine a proper dosage of an invention compound in this model.
Administration of an invention compound in this model is optionally by oral administration or by intravenous administration via an osmotic pump. After 7 and 14 days for a two week study, or 7, 14, and 28 days for a four week study, the hind-paw weight distribution is again determined. Typically, the animals administered vehicle alone place greater weight on their unaffected left hind paw than on their right hind paw, while animals administered an invention compound show a more normal (i.e., more like a healthy animal) weight distribution between their hind paws. This change in weight distribution was proportional to the degree of joint cartilage damage. Percent inhibition of a change in hind paw joint function is calculated as the percent change in hind-paw weight distribution for treated animals versus control animals. For example, for a two week study, [formula] wherein: ΔWC is the hind-paw weight differential between the healthy left limb and the arthritic limb of the control animal administered vehicle alone, as measured on Day 14; and • ΔWG is the hind-paw weight differential between the healthy left limb and the arthritic limb of the animal administered an invention compound as measured on Day 14.
In order to measure biochemical or histopathological end points in the MIA Rat model, some of the animals in the above study may be sacrificed, and the amounts of free proteoglycan in both the osteoarthritic right knee joint and the contralateral left knee joint may be determined by biochemical analysis. The amount of free proteoglycan in the contralateral left knee joint provides a baseline value for the amount of free proteoglycan in a healthy joint. […]

The target of series [4] is pig alpha-2-delta receptor 1 (A2DR1) (Sus scrofa, UniProt A0A287BIN3). Nature of the series: [3H]Gabapentin scintillant proximity A2DR1 binding assay (A2DR1 SPA, Biological Method 5). Conditions: displacement of [3H]-gabapentin. As to the method: as §1, §2, §3
Chain of pig alpha-2-delta receptor 1 (A2DR1) (A0A287BIN3 1-1109): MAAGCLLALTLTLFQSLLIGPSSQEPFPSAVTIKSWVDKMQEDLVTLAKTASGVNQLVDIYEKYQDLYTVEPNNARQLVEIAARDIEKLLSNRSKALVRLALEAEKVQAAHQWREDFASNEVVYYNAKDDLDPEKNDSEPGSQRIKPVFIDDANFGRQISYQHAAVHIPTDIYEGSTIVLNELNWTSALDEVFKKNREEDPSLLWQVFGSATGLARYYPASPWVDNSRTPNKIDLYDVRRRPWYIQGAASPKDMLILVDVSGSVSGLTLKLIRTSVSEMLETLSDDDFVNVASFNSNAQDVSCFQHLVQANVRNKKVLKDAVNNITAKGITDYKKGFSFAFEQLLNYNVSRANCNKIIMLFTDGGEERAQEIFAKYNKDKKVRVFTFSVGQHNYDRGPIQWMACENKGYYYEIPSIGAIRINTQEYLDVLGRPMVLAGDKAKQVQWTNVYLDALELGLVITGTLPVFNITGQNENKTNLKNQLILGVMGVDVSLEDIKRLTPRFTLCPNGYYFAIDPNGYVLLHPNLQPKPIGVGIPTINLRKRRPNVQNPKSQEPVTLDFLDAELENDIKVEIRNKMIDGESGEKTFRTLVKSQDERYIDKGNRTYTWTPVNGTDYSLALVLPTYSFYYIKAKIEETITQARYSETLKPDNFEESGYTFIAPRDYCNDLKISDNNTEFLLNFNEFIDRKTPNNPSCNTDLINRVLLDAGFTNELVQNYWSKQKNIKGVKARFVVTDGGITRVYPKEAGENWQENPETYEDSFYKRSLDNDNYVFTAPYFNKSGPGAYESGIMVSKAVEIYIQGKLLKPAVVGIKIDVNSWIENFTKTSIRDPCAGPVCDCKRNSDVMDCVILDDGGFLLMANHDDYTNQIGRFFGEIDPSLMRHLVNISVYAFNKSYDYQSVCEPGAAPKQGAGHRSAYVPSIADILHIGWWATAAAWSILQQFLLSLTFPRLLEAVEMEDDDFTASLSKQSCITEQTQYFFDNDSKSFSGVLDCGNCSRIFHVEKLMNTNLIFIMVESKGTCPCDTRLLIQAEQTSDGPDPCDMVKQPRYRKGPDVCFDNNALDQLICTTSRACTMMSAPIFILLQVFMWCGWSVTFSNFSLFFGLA

Structures are written as SMILES. Read-outs that look alike come from different tables or passages of the source.

The term bioavailability denotes dose-corrected exposure relative to a reference, in per cent. As usually defined, the IC50 is the concentration that inhibits the measured activity by half.

Consider `CN1[C@H](C(=O)O)C[C@@H]2CCCC[C@@H]21.Cl` [A1], for which the bioavailability in series [1] (Wistar, in vivo, po, administered orally, rat (footnote of Table 2), read-out: bioavailability) stood at 63%. Further, in series [1] (Wistar, rat, in vivo, po, administered orally, rat (footnote of Table 2), read-out: half-life), the half-life is 10 h.
As to `CN1[C@H](C(=O)O)C[C@@H]2CCCC[C@@H]21.Cl` [Example A1], the half-maximal inhibitory concentration (IC50) in series [2] and in series [4] was ≥ 10 µM in each case. The bioavailability in series [1] (Wistar, in vivo, rat, PO, 30 mg/kg, read-out: Mean Bioavailability) turned out to be 63%. The half-life in series [1] (Wistar, rat, in vivo, po, 30 mg/kg, rat plasma, PO, 30 mg/kg, read-out: Mean T1/2 (converted)) is 25.3 h; in series [1] (Wistar, rat, in vivo, po, 300 mg/kg, rat plasma, PO, 300 mg/kg, read-out: Mean T1/2 (converted)), 11.1 h. Moreover, the “% I @ 30 mg/kg BID (%) (± SEM): inhibition of loss of hind limb joint function in MIA at Day 14” value in series [3] (30 mg/kg BID oral, 2-week MIA study, Day 14, rat) is on record as 59 ± 17%.
Regarding `CCN1[C@H](C(=O)O)C[C@@H]2CCCC[C@@H]21` [Example A3], the IC50 in series [2] and in series [4] was ≥ 10 µM throughout.
With `CCCN1[C@H](C(=O)O)C[C@@H]2CCCC[C@@H]21` [Example A5], the IC50 in series [2] and in series [4] was ≥ 10 µM in each case.
As for `CC(C)CN1[C@H](C(=O)O)C[C@@H]2CCCC[C@@H]21` [Example A6], the IC50 in series [2] and in series [4] was ≥ 10 µM throughout.
For `COCCN1[C@H](C(=O)O)C[C@@H]2CCCC[C@@H]21` [Example A7], the half-inhibitory concentration (IC50) in series [2] and in series [4] was ≥ 10 µM each time.
On to `CS(=O)(=O)NC(=O)[C@@H]1C[C@@H]2CCCC[C@@H]2N1` [Example E1], for which the IC50 in series [2] and in series [4] was ≥ 10 µM throughout.
As for `CCC1CCC2CC(C(=O)O)NC2C1` (centres unmarked) [Example O1], the IC50 in series [2] is 4.5 µM; in series [4] it was 1.3 µM.
For `CC(C)(C)C1CCC2NC(C(=O)O)CC2C1` (centres unmarked) [Example O8], in that order: ≥ 10 µM and ≥ 10 µM.
`O=C(O)C1CC2C(CCCC2C(F)(F)F)N1` (centres unmarked) [Example O10]: the 50% inhibitory concentration (IC50) in series [2] and in series [4] was ≥ 10 µM in each case. For the same molecule, the “% I @ 10 mg/kg/day (%) (± SEM): inhibition of loss of hind limb joint function in MIA at Day 14” value in series [3] (10 mg/kg/day via osmotic pump, 2-week MIA study, Day 14, rat) was determined as 0%.
Take `O=C(O)[C@]12C[C@H]1[C@@H]1CCCC[C@@H]1N2` [Example Q1]: the half-maximal inhibitory concentration (IC50) in series [2] was ≥ 10 µM; in series [4], 2.6 µM.
For `CN(C)CC(C)(C)COC(=O)C1C[C@@H]2CCCC[C@@H]2N1` (some centres unmarked) [Example Y1] the same measures were 1.4 µM and 0.29 µM.
As for `O=c1[nH]c([C@@H]2C[C@@H]3CCCC[C@@H]3N2)no1` [F1], the “% I (%) (± SEM): inhibition of loss of hind limb joint function in MIA at Day 14” value in series [3] (via Alzet osmotic pump (footnote 3), Day 14, rat) is “(ii) 59 ± 9^3%”.
For the molecule `O=C(O)[C@@H]1C[C@@H]2CCCC[C@@H]2N1` [OHI2CA, (2S,3aS,7aS)-octahydroindole-2-carboxylic acid, reference compound], the IC50 in series [2] stood at 0.6 µM; in series [4], 0.11 µM. Moreover, the half-life is 4.01 h in series [1] (Sprague-Dawley, rat plasma, IV, 3 mg/kg, read-out: Mean T1/2 (converted)); 4 h in series [1] (Wistar, plasma, po, administered orally, rat (footnote of Table 2), read-out: half-life); 3.78 h in series [1] (Wistar, rat plasma, PO, 5 mg/kg, read-out: Mean T1/2 (converted)). Besides, the bioavailability in series [1] (Wistar, plasma, po, administered orally, rat (footnote of Table 2), read-out: bioavailability) turned out to be 72%; in series [1] (Wistar, plasma, rat, PO, 5 mg/kg, read-out: Mean Bioavailability) it was 72%.
For `CN1[C@H](C(=O)O)C[C@@H]2CCCC[C@@H]21` [[2(S),3a(S),7a(S)]-1-methyl-2,3,3a,4,5,6,7,7a-octahydroindole-2-carboxylic acid], the “degree of structural damage to the cartilage” value in series [3] (30 mg/kg and 10 mg/kg doses, PO BID, 4 weeks post-MIA) was “significantly decreased”. In addition, the cartilage erosion severity result in series [3] (30-mg/kg and 10-mg/kg doses, PO BID, MIA rat) is given as “significantly decrease”. Further, the “joint function limitations (differential hind-limb weight bearing)” value in series [3] (PO BID, MIA rat) is given as “decrease joint function limitations”. Also, the joint pain result in series [3] (all doses (3 to 30 mg/kg PO BID), 4 weeks post-MIA) is listed as “significantly decreased”.
